# Measured values from patent US20260166159A1, “KRAS G12D DEGRADATION AGENT, AND PREPARATION METHOD AND USE THEREFOR” (LEADINGTAC PHARMACEUTICAL (SHAOXING) CO., LTD., priority 2022, published 2026).
# Experiments:
# [1] = system: KRAS G12D mutant human pancreatic cancer cell HPAC; assay: 3D cell proliferation inhibition assay, HPAC; assay type: cell-based; conditions: 168 h, 7 days, CTG
# From the text: (§1) The inhibitory effects of the compounds on 3D cell proliferation were investigated on KRAS G12D mutant human lung cancer cell A427, KRAS G12D mutant human gastric cancer cell AGS, KRAS G12D mutant human metastatic pancreatic cancer cell AsPc-1, KRAS G12D mutant human pancreatic cancer cell Panc 04.03, KRAS G12D mutant human pancreatic cancer cell HPAC, KRAS G12V mutant human lung squamous cell carcinoma cell SW900, and KRAS WT human gastric cancer cell MKN1. The specific procedures were as follows:
# (§2) 10 μL of each compound solution diluted in a gradient was added to corresponding wells of a 96-well low-adsorption microplate (PerkinElmer), so that the final concentrations of the test compounds in the reaction system were in a range of 10000-0.026 nM. The final concentration of DMSO was 0.2%. Then 90 µL of cells were correspondingly seeded into each well to achieve a cell density of 5×10^2 cells/well (the cell density of SW900 was 5×10^1 cells/well, and the cell density of MKN1 was 1×10^3 cells/well). In addition to test wells for the test compounds, both a DMSO control well and a medium control well were set, with the DMSO control well containing DMSO and cells and the medium well containing only a medium. After the sample loading, the 96-well low-adsorption microplate was incubated in an incubator at 37° C. with 5% carbon dioxide for 7 days. After 7 days, the microplate was taken out, and 100 μL of CTG reagent (Promega) was added to each well. The plate was incubated at room temperature for 60 min and read on a microplate reader EnVision by the chemiluminescence program. The inhibition rates of the compounds at each concentration were calculated using the formula for the percentage inhibition of cell proliferation: inhibition rate %=(mean value of DMSO control group−single concentration reading value of compound)/(mean value of DMSO control group−mean value of medium control group)×100. Then non-linear curve fittings for logarithmic concentration-inhibition rate were performed by GraphPad Prism 8, and the IC50 values of the compounds were obtained (Table 5).
# [2] = system: KRAS G12D mutant human lung cancer cell A427; assay: 3D cell proliferation inhibition assay, A427; assay type: cell-based; conditions: A-427, 168 h, A427, 7 days, CTG, numeric values
# Summary of the method: (§3)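 3D growth, low-adsorption plate; 5×10^2 cells/well; cpd 10000–0.026 nM final, 0.2% DMSO; 7 d, 37 °C/5% CO2. CTG luminescence, 60 min RT. % inhibition vs DMSO (cells) and medium blanks; IC50 by nonlinear fit.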
# [3] = system: KRAS G12D mutant human gastric cancer cell AGS; assay: 3D cell proliferation inhibition assay, AGS; assay type: cell-based; conditions: 168 h, 7 days, CTG, numeric values
# Summary of the method: as §3
# KRAS-G12D [4] = molecular target: T1, KRAS-G12D (Homo sapiens, UniProt P01116, G12D); assay: KRAS-G12D degradation assay (Western Blot), AsPc-1 cells; assay type: cell-based; conditions: for DC50: 24 h; for Dmax: ASPC1, 24 h
# T1 construct: endogenous in cells; host or cells: A-427 (ATCC), AGS, AsPc-1, Panc 04.03
# T1 sequence (P01116 1-188 isoform P01116-2 G12D): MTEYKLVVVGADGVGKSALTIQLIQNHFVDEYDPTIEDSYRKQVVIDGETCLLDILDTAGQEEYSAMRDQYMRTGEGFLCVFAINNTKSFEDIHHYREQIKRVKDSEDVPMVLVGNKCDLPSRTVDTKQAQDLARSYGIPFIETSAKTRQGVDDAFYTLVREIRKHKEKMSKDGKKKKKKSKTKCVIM
# Description: The degradation effects of the compounds on KRAS-G12D were investigated on KRAS G12D mutant human lung cancer cell A-427 (ATCC), KRAS G12D mutant human gastric cancer cell AGS, KRAS G12D mutant human metastatic pancreatic cancer cell AsPc-1, and KRAS G12D mutant human pancreatic adenocarcinoma cell Panc 04.03. The specific procedures were as follows: 0.95 mL of cells were seeded into each well of a 24-well cell culture plate to achieve a cell density of 5×10^5 cells/well; and the cell plate was incubated in an incubator at 37° C. with 5% CO2 overnight. Then 50 μL of the compound solution after dilution was added to each of the wells with the corresponding cells, so that the final concentration of the compound was in a range of 0.03-3000 nM. The final concentration of DMSO was 0.25%. After the compounds were added, the cell plate was incubated in the incubator at 37° C. with 5% CO2 for 24 h. The culture medium in the 24-well cell culture plate was removed, and the plate was washed twice with 1×PBS (KeyGEN). 120 μL of RIPA (strong) lysis buffer (Beyotime) supplemented with 1 mM phenylmethylsulfonyl fluoride, a protease inhibitor mixture (Beyotime), and a protease phosphatase inhibitor mixture (Beyotime) was added to lyse adherent A-427 cells at the bottom of the cell culture plate. After the plate was left to stand on ice for 30 min, the protein lysate in each well was transferred to a 1.5 mL centrifuge tube and centrifuged at 15000 g for 20 min at 4° C. The cell lysate supernatants after centrifugation were cryopreserved in a refrigerator at −80° C. for later use.
# After the samples of the cell lysate supernatants that had been prepared were thawed from the refrigerator at −80° C., the total protein concentrations of the cell lysates were determined using a BCA protein quantification kit (Tiangen). The total protein concentrations of the samples were then adjusted to 0.5 μg/μL with PBS and 5×SDS-PAGE protein loading buffer (Beyotime), and the samples were incubated in a water bath at 100° C. for 15 min. The samples were then incubated in an ice bath for 5 min and centrifuged at 14000 g for 1 min at 4° C., and the supernatants were mixed well as loading samples for the Western Blot assay. The samples were loaded into wells of a 10% precast gel (KeyGEN) with a loading volume of 10 μL (total protein: 5 μg), a sufficient Tris-MOPS-SDS running buffer (Adamas) was added, and then electrophoresis was performed at a constant voltage of 120 V for 55 min. After the electrophoresis, the proteins on the gel were transferred to PVDF membranes at a constant current of 250 mA for 55 min. After the membrane transfer, the PVDF membranes were incubated in 1× Quick Block blocking buffer (Beyotime) at room temperature for 30 min. After the blocking, the PVDF membranes were separately incubated at 4° C. overnight with the KRAS antibody (Abcam) diluted in a ratio of 1:1000 and the […] antibody (Abcam) diluted in a ratio of 1:2000 in 5% BSA as the diluent, and then washed with 1×TBST buffer (2.4 g of Tris, 8.8 g of NaCl, 1.5 mL of Tween 20, with pH adjusted to 7.4, with the volume brought to 1 L) 3 times for 10 min/time. The membranes were incubated with a secondary antibody (Abcam) diluted in 5% BSA at room temperature for 2 h, and then washed with 1×TBST buffer 3 times for 10 min/time. Finally, the membranes were incubated with Clarity Western ECL Substrate (BIO-RAD) for 5 min for luminescence and color development, and a ChemiScope 6200 Touch chemiluminescence imaging system (Clinx) was used for color development and protein mapping. Gray value analysis of the protein maps was performed using the chemiluminescence analysis software (Clinx). The gray correction value for each sample was calculated using the formula: gray correction value=(gray value of target protein/gray value of corresponding internal reference)×10^3. Then degradation rates were calculated by comparison with the gray correction value of the control group. […]
# [5] = system: KRAS G12D mutant human metastatic pancreatic cancer cell AsPc-1; assay: 3D cell proliferation inhibition assay, AsPc-1; assay type: cell-based; conditions: ASPC1, 168 h, AsPc-1, 7 days, CTG, numeric values
# From the text: as §1, §2
# [6] = molecular target: T2, Human KRAS G12D 6His-tagged (Homo sapiens, UniProt P01116, G12D); assay: KRAS-G12D/GTP binding assay (HTRF); conditions: numeric values
# T2 construct: purchased PerkinElmer
# T2 sequence (P01116 1-188 isoform P01116-2 G12D): as above
# Description: In this method, the inhibitory effects of the compounds on the binding of KRAS-G12D to GTP were assayed by a homogeneous time-resolved fluorescence (HTRF) technique using a KRAS-G12D/GTP binding assay kit (PerkinElmer).
# The experimental procedures were as follows (refer to the kit instructions for detailed test methods): the compounds of the present disclosure were each firstly dissolved in DMSO at a concentration of 20 mM, and then diluted in an equal gradient with a buffer in the kit, so that the final concentrations of the test compounds in the reaction system were in a range of 0.02-5000 nM, and the final concentration of DMSO was 0.5%. 5 μL of each compound was incubated with 5 μL of 1× Human KRAS G12D 6His-tagged (PerkinElmer), 5 μL of 1×6His Eu Cryptate Antibody (PerkinElmer), and 5 μL of 1×GTP Red reagent (PerkinElmer) in a 384-well plate (Greiner) at 25° C. for 1 h. After the incubation was completed, the fluorescence intensity of each well was measured at the excitation wavelength of 337 nm and the emission wavelengths of 620 nm and 665 nm with an EnVision microplate reader (PerkinElmer) in the HTRF mode, and Ratio values were calculated using the formula: Ratio=(665 nm/620 nm)×[…]. The inhibition rates of the compounds at each concentration were calculated by comparing the fluorescence intensity ratio with that of the control group. Then non-linear curve fittings for logarithmic concentration-inhibition rate were performed using the GraphPad Prism 8 analysis software, and the IC50 values of the compounds were obtained (Table 2).
# KRAS-G12D [7] = molecular target: T1, KRAS-G12D; assay: KRAS-G12D degradation assay (Western Blot), A-427 cells; assay type: cell-based; conditions: A427 cells, 24 h, numeric values
# Summary of the method: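 Western blotting of lysates (5 μg protein) quantified KRAS against a β-actin reference after 24 h exposure to compound at final 0.03–3000 nM in 0.25% DMSO. Cells were A-427, AGS, AsPc-1 or Panc 04.03, all KRAS G12D, at 5×10^5/well. Degradation versus control yielded DC50 and Dmax.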
structure (smiles),measurement,setting,value
"C#Cc1c(F)ccc2cc(O)cc(-c3ncc4c(N5CC6CCC(C5)N6)nc(OC[C@@H](C)CN5CCN(CC6CCC7(CC6)CCN(C(=O)c6ccc(OC)c(N8CCC(=O)NC8=O)c6)CC7)CC5)nc4c3F)c12 [Example 254, 1-(5-(9-((4-((S)-3-((4-(3,8-diazaspirobicyclo[3.2.1]octan-3-yl)-7-(8-ethynyl-7-fluoro-3-hydroxynaphthalen-1-yl)-8-fluoropyrido[4,3-d]pyrimidin-2-yl)oxy)-2-methylpropyl)piperazin-1-yl)methyl)-3-azaspiro[5.5]undecane-3-carbonyl)-2-methoxyphenyl)dihydropyrimidine-2,4(1H,3H)-dione]",IC50,[1],14.3 nM
same,IC50,[2],74.7 nM
same,IC50,[3],13 nM
same,DC50,KRAS-G12D [4],32.5 nM
same,Dmax,KRAS-G12D [4],83.4%
same,IC50,[5],7.85 nM
"C#Cc1c(F)ccc2cc(O)cc(-c3ncc4c(N5CC6CCC(C5)N6)nc(OCC(CN5CCN(CC6CCC7(CC6)CCN(C(=O)c6ccc(OC)c(N8CCC(=O)NC8=O)c6)CC7)CC5)OC)nc4c3F)c12 (stereo not shown) [Example 105, 1-(5-(9-((4-(3-((4-(3,8-diazabicyclo[3.2.1]octan-3-yl)-7-(8-ethynyl-7-fluoro-3-hydroxynaphthalen-1-yl)-8-fluoropyrido[4,3-d]pyrimidin-2-yl)oxy)-2-methoxypropyl)piperazin-1-yl)methyl)-3-azaspiro[5.5]undecane-3-carbonyl)-2-methoxyphenyl)dihydropyrimidine-2,4(1H,3H)-dione]",IC50,[1],12.7 nM
same,IC50,[5],93.5 nM
"C#Cc1c(F)ccc2cc(O)cc(-c3ncc4c(N5CC6CCC(C5)N6)nc(OCC(C)CN5CCN(CC6CCC7(CC6)CCN(C(=O)c6ccc(C)c(N8CCC(=O)NC8=O)c6)CC7)CC5)nc4c3F)c12 (stereo not shown) [Example 108, 1-(5-(9-((4-(3-((4-(3,8-diazabicyclo[3.2.1]octan-3-yl)-7-(8-ethynyl-7-fluoro-3-hydroxynaphthalen-1-yl)-8-fluoropyrido[4,3-d]pyrimidin-2-yl)oxy)-2-methylpropyl)piperazin-1-yl)methyl)-3-azaspiro[5.5]undecane-3-carbonyl)-2-methylphenyl)dihydropyrimidine-2,4(1H,3H)-dione]",IC50,[1],6.87 nM
same,IC50,[5],4.53 nM
same,IC50,[6],3.22 nM
COc1ccc(C(=O)N2CCC3(CCC(CN4CCN(CC5(COc6nc(N7CC8CCC(C7)N8)c7cnc(-c8cc(O)cc(Cl)c8C8CC8)c(F)c7n6)CC5)CC4)CC3)CC2)cc1N1CCC(=O)NC1=O [Example 89],IC50,[1],12.8 nM
same,IC50,[3],8.65 nM
same,DC50,KRAS-G12D [4],94.7 nM
same,Dmax,KRAS-G12D [4],69%
same,IC50,[5],11.5 nM
"[2H]C([2H])(C1CCC2(CC1)CCN(C(=O)c1ccc(C)c(N3CCC(=O)NC3=O)c1)CC2)N1CCN(CC2(COc3nc(N4CC5CCC(C4)N5)c4ccc(-c5cc(O)cc6ccc(F)c(C#C)c56)c(F)c4n3)CC2)CC1 [Example 107, 1-(5-(9-((4-((1-(((4-(3,8-diazabicyclo[3.2.1]octan-3-yl)-7-(8-ethynyl-7-fluoro-3-hydroxynaphthalen-1-yl)-8-fluoroquinazolin-2-yl)oxy)methyl)cyclopropyl)methyl)piperazin-1-yl)methyl-d2)-3-azaspiro[5.5]undecane-3-carbonyl)-2-methylphenyl)dihydropyrimidine-2,4(1H,3H)-dione]",IC50,[1],10.8 nM
same,DC50,KRAS-G12D [4],13.7 nM
same,Dmax,KRAS-G12D [4],97.5%
same,DC50,KRAS-G12D [7],4.98 nM
same,Dmax,KRAS-G12D [7]; A-427,94.7%
same,IC50,[5],27.5 nM
